Measured values from patent US20130131059A1, “METHOD FOR TREATING OPHTHALMIC DISEASES USING KINASE INHIBITOR COMPOUNDS IN PRODRUG FORMS” (INSPIRE PHARMACEUTICALS, INC., priority 2010, published 2013).
Like-named read-outs stand apart in the source and are kept apart here.

What was measured:
ROCK1 = molecular target: T1, ROCK1 (Homo sapiens, UniProt Q13464); test: Rho kinase inhibition assay (IMAP fluorescence polarization), ROCK1; format: biochemical; conditions: 10 μM ATP, 60 min at room temperature; read-out: ROCK1 IC50
T1 construct: purchased Upstate/Chemicon 14-601
T1 sequence (Q13464 whole entry): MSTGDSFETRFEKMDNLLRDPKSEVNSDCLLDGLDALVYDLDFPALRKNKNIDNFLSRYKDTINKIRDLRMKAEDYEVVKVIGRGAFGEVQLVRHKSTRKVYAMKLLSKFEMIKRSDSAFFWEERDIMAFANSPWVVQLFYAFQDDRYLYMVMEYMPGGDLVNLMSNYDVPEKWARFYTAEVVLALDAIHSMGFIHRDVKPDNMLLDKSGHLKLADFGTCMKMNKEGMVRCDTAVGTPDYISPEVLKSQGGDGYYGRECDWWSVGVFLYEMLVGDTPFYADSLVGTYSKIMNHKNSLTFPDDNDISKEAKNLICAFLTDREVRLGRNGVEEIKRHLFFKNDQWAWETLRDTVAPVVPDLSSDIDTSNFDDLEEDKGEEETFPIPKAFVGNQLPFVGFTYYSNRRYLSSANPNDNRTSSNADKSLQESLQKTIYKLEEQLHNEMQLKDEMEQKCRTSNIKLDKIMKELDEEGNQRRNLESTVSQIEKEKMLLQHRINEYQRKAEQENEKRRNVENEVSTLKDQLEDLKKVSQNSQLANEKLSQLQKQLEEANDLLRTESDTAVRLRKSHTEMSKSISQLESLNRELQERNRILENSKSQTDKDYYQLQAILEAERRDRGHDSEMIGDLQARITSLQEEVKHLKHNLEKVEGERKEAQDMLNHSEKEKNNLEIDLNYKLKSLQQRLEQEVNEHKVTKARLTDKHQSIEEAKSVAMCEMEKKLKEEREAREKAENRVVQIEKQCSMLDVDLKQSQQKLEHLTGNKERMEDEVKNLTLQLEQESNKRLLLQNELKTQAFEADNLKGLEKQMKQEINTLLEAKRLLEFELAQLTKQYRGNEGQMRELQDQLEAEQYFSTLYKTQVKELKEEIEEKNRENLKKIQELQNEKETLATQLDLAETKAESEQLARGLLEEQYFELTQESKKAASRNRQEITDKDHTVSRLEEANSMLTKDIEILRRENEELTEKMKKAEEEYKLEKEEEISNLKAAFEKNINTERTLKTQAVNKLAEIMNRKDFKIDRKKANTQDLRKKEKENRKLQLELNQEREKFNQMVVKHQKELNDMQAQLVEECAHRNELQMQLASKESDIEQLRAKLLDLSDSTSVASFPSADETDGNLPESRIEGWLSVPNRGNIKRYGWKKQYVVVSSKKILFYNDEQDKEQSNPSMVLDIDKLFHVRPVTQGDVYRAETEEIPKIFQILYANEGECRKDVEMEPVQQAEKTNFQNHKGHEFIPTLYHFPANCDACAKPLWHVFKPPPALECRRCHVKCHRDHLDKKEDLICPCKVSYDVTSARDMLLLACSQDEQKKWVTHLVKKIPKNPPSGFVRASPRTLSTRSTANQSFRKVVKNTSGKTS
Protocol: (§1) Following the pre-incubation, 10 μM ATP was added to initiate the reaction. After 60 minutes at room temperature, Molecular Devices IMAP™ binding solution was added to bind phosphorylated substrate. After 30 minutes of incubation in the presence of the IMAP™ beads, the fluorescence polarization was read and the ratio was reported as mP.

ROCK2 = molecular target: T2, ROCK2 (Homo sapiens, UniProt O75116); test: Rho kinase inhibition assay (IMAP fluorescence polarization), ROCK2; format: biochemical; conditions: 10 μM ATP, 60 min at room temperature
T2 construct: purchased Upstate/Chemicon 14-451
T2 sequence (O75116 whole entry): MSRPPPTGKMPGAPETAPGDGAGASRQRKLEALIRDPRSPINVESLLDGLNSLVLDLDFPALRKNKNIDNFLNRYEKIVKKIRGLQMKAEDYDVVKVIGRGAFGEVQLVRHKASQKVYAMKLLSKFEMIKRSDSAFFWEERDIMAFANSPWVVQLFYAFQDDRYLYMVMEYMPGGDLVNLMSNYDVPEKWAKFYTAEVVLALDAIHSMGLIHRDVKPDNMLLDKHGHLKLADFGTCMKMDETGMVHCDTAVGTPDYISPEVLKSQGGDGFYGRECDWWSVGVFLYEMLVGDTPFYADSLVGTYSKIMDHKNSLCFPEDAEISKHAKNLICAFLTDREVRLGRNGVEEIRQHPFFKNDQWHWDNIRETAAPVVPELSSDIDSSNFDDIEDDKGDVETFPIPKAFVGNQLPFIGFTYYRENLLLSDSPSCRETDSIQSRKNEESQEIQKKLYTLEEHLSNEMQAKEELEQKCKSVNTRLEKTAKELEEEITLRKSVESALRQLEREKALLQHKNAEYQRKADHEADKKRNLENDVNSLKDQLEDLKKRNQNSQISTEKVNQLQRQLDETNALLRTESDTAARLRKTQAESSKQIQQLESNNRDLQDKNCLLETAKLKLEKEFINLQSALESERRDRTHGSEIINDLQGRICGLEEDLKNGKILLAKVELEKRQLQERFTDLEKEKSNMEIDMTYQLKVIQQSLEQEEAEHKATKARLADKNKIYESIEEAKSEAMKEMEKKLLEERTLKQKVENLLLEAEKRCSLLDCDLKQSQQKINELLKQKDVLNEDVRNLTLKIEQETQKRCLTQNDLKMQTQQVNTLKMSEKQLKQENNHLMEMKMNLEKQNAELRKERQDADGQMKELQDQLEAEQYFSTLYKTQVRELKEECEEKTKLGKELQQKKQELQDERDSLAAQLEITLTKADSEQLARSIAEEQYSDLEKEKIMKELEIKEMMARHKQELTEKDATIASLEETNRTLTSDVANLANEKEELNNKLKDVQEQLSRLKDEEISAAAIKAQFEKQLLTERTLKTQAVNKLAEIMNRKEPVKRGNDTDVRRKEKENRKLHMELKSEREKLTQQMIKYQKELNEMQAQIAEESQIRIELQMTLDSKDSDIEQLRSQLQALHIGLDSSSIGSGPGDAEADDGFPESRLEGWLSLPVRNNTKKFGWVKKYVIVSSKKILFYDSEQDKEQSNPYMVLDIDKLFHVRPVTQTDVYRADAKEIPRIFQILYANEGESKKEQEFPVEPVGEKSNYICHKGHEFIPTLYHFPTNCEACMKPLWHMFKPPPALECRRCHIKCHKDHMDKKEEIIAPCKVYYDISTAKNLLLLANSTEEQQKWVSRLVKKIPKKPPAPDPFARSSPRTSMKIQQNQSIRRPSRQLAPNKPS
Protocol: as §1, with “(Molecular Devices product number R7184) was pre-incubated with a test compound for 5 minutes in buffer containing 10 mM Tris-HCl pH 7.2, 10 mM MgCl2, and 0.1% BSA. Following” for “Following”
See Tian et al., Arch. Ophthalmol. […] Ophthalmol. Vis. […] Ophthalmol. […] Cytoskel. […] Ophthalmol. Vis. […] Ophthalmol. Vis.

[1] = Ocular comfort, composite behaviour score after ocular instillation; format: in vivo, rabbit; conditions: 4 mM, two drops to right eye, evaluated for 15 minutes; FIGS. 1 and 2
Protocol: The desired compound at a concentration of 4 mM in a formulation of 10 mM phosphate, 1% polysorbate 80, 0.85% NaCl, 0.02% BAC, 0.2% EDTA pH 7.0 was administered as two 30 µl drops to the right eye of each rabbit within a dosing group. The rabbits were evaluated for 15 minutes after ocular instillation and their changes in behavior were recorded. […] The higher the score, the more discomfort an animal senses. A mean ±SE was generated for each group and depicted in FIGS. 1 and 2.

[2] = Ocular surface and aqueous humor bioavailability; format: in vivo, New Zealand White rabbits; conditions: New Zealand White, rabbit, topical, 30 μl of 1 mM (0.04% w/v) per eye, Compound 14 dosed 1 mM, 1 × 30 uL, 4 eyes
Protocol: Dose Formulation and Administration. Compounds 14 (prodrug) and 49 (base compound) were formulated at 0.04% w/v (the equivalent millimolar concentration is 1 mM) in 10 mM phosphate, 0.8% polysorbate 80, 0.85% NaCl, 0.01% BAC, 0.1% EDTA at pH 7.3. Each compound was administered as a 30 μl drop to both eyes of each animal within a dosing group and the ocular and systemic exposure was examined as described in Example 49.
Study sampling. 40 μL of saline was applied to the eyes at 0.083, 1, 2, and 4 hours after administration of each compound and the lavage fluids were collected as samples. Aqueous humor and ocular surface samples were obtained from 2 animals (4 eyes) per dosing group at 0.083, 1, 2, and 4 hours post dosing, by the methods described in Example 49. Ocular surface relates to the surface of the cornea and conjunctiva. Ocular surface residence time is the average time that a compound resides on the ocular surface.

[3] = Ocular surface and aqueous humor bioavailability; format: in vivo, New Zealand White rabbits; conditions: New Zealand White, rabbit, topical, 30 μl of 1 mM (0.04% w/v) per eye, Compound 14 dosed 1 mM, 1 × 30 uL, 4 eyes, time 0.83 h
[4] = aqueous humor, read-out: Aqueous Humor concentration of [14], Mean
[5] = ocular surface (saline lavage fluid), read-out: Ocular Surface concentration of [14], Mean

IC50 (ROCK1): 2.46 µM
IC50 (ROCK2): 0.717 µM
concentration at 1 h [2, 4]: 0 µM
concentration at 2 h [2, 4]: 0 µM
concentration at 4 h [2, 4]: 0 nM
concentration at 1 h [2, 5]: 3.08 µM
concentration at 2 h [2, 5]: 0.245 µM
concentration at 4 h [2, 5]: 0 nM
concentration at […] [3, 4]: 0 µM
concentration at […] [3, 5]: 24.3 µM
Compound: Cc1ccc(CN2CC[C@@H](Nc3cccc4cnccc34)C2)cc1OCCOC(=O)c1ccccc1 [Compound 14, 2-(5-(((R)-3-isoquinolin-5-ylamino)pyrrolidin-1-yl)methyl)-2-methylphenoxy)ethyl benzoate]
Ocular discomfort (composite score) versus parent compound [1]: reduced level of discomfort compared to the parent compound
